Measured values taken from patent US20160361288A1, “PHARMACEUTICAL COMPOSITIONS FOR PREVENTING OR TREATING DIABETIC N[…] ACTIVITY INHIBITOR OF TENC1” (POSTECH ACADEMY-INDUSTRY FOUNDATION, priority 2015, published 2016).

How the values were obtained:
[1] = molecular target: T1, TENC1 (Homo sapiens, UniProt Q63HR2, P1246L); test: Malachite Green assay screening for TENC1 inhibitor (PTPase activity of TENC1); assay type: biochemical; conditions: TENC1 protein isolated from cells, compared with control; FIG. 8
T1 construct: made in house; host or cells: cells (type not specified)
T1 sequence (Q63HR2 1-1409 P1246L): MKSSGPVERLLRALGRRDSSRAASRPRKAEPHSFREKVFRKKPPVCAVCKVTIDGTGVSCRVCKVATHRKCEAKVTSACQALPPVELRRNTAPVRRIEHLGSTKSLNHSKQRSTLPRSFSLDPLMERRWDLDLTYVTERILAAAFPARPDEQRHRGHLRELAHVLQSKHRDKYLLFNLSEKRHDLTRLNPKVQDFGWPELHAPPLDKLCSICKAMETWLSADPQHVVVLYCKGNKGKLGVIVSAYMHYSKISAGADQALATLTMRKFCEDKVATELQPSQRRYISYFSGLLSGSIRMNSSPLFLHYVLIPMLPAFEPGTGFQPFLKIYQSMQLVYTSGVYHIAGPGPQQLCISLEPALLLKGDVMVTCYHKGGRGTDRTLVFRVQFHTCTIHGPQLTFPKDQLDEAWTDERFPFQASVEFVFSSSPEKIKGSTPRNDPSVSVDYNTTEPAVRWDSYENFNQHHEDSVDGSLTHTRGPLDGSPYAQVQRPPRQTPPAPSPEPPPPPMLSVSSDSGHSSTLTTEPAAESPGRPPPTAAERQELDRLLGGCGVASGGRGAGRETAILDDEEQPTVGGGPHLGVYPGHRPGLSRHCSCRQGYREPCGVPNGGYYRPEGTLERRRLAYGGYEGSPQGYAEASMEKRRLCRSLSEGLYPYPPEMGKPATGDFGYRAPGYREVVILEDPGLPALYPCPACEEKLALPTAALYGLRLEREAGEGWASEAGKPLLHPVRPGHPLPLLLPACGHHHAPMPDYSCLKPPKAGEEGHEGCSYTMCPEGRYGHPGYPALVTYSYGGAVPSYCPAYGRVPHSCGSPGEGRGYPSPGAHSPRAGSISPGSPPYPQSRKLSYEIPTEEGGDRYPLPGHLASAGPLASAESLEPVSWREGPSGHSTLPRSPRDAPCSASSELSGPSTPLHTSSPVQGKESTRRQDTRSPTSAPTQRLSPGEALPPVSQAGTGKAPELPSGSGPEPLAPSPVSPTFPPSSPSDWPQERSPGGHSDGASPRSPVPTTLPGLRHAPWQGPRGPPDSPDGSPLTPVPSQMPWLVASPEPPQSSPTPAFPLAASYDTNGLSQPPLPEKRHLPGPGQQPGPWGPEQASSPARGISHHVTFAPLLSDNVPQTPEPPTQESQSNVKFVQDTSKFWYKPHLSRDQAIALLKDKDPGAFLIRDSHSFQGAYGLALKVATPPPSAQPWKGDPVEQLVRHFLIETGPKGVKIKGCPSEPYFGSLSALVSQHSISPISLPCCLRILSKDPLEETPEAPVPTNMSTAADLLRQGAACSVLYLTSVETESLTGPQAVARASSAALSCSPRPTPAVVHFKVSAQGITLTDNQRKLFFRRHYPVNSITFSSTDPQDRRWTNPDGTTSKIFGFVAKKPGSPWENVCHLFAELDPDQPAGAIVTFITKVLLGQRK
Description: According to the above results, it was confirmed that TENC1 overexpressed in a high glucose environment known as a leading cause of diabetic nephropathy inhibits phosphorylation of nephrin caused by dephosphorylation, and induces hypertrophy of the podocyte cell line. For this reason, to inhibit the hypertrophy of the podocyte cell line, screening was performed through a Malachite Green assay for finding a TENC1 inhibitor.
TENC1 protein isolated from the cells and each of the natural product library candidate compounds were put together for a predetermined time, and the PTPase activity of TENC1 was measured. […] Here, as a positive control, a PTPase inhibitor, sodium vanadate (Na3VO4; NAV) was used. Since there were almost no molecules left in the test tube, the method has a higher probability of discovering a direct regulator, compared with a cellular-level screening method.

[2] = test system: differentiated podocyte; test: Filtration function of differentiated podocyte under high glucose (protein quantification); assay type: cell-based; conditions: high glucose condition of 30 mmol/L vs normal glucose 5 mmol/L; FIG. 11B
[3] = test system: mTORC1 signaling; test: mTORC1 signaling (S6K phosphorylation) in kidney tissue of db/db mouse (western blotting); assay type: in vivo; conditions: 300 mg/kg orally daily for 2 weeks, FIG. 13
Description: (§1) An effect of DHTS, which is the representative material of the TENC1 inhibitors found through the screening described in Example 5, was identified using a diabetic nephropathy animal model. To this end, as a diabetic nephropathy animal model, a type II diabetic model, that is, a db/db mouse was used, and as a control, a db/m mouse was used. 10 week-old male db/m and db/db mice were divided into three groups including a group in which a vehicle was administered to a db/m mouse, a group in which a vehicle was administered to a db/db mouse, and a group in which 300 mg/kg of DHTS was administered to a db/db mouse for experiments, and the vehicle or drug was orally administered daily for 2 weeks according to each condition. As the vehicle, 1% carboxymethyl cellulose was used.
(§2) Further, to investigate whether the above result is obtained by inhibiting TENC1-induced nephrin dephosphorylation and increased mTORC1 signaling, immunoprecipitation and western blotting were performed with a kidney tissue sample extracted from a mouse.

[4] = test system: nephrin; test: Nephrin phosphorylation in kidney tissue of db/db mouse (immunoprecipitation); assay type: in vivo; conditions: 300 mg/kg orally daily for 2 weeks, FIG. 12
Description: as §1, §2

[5] = test system: db/db mouse; test: Diabetic nephropathy animal model, db/db mouse (fasting serum glucose, kidney weight, proteinuria); assay type: in vivo; conditions: 300 mg/kg orally daily for 2 weeks
Description: as §1
First, after the experiment described above, blood was taken from a mouse to measure a fasting serum glucose level. As a result, referring to FIG. 9, it was confirmed that the fasting serum glucose level was not decreased by the administration of DHTS for two weeks.
Therefore, it was confirmed that DHTS can improve the renal hypertrophy.

With Cc1cccc2c3c(ccc12)C1=C(C(=O)C3=O)[C@@H](C)CO1 [DHTS, (1R)-1,6-dimethyl-1,2-dihydronaphtho[1,2-g][1]benzofuran-10,11-dione] the “inhibitory effect on the PTPase activity of TENC1” value [1] was “inhibitory effect”, the “filtration function of the podocyte” value [2] was “improved to a level similar to the result obtained under a the normal glucose condition” and the “S6K phosphorylation (pS6K) in kidney tissue” value [3] was “effectively inhibited”. For the same compound, the “nephrin phosphorylation in kidney tissue” value [4] was “recovered”, the “fasting serum glucose level” value ([5]; FIG. 9) was “not decreased” and the “proteinuria (albumin ELISA)” value ([5]; compared with vehicle db/db mouse, FIG. 11A) was “significantly reduced”. The “kidney weight (renal hypertrophy; ratio of kidney weight to body weight)” value ([5]; vs vehicle db/db and db/m, FIG. 10) was “such an increase was not shown”.
